Experimental data from PMC7101356, “Cross-site and cross-platform variability of automated patch clamp assessments of drug effects on human cardiac currents in recombinant cells” (Scientific Reports, 2020).

Tests used:
late hNav1.5 = molecular target: T1, late hNav1.5 (Homo sapiens, UniProt Q14524); experiment: Automated patch clamp, late hNav1.5 current block (ATX-II activated); assay type: cell-based
T1 construct: expressed in transfected cells; host or cells: HEK293 or CHO, depending on site
T1 sequence (Q14524 whole entry): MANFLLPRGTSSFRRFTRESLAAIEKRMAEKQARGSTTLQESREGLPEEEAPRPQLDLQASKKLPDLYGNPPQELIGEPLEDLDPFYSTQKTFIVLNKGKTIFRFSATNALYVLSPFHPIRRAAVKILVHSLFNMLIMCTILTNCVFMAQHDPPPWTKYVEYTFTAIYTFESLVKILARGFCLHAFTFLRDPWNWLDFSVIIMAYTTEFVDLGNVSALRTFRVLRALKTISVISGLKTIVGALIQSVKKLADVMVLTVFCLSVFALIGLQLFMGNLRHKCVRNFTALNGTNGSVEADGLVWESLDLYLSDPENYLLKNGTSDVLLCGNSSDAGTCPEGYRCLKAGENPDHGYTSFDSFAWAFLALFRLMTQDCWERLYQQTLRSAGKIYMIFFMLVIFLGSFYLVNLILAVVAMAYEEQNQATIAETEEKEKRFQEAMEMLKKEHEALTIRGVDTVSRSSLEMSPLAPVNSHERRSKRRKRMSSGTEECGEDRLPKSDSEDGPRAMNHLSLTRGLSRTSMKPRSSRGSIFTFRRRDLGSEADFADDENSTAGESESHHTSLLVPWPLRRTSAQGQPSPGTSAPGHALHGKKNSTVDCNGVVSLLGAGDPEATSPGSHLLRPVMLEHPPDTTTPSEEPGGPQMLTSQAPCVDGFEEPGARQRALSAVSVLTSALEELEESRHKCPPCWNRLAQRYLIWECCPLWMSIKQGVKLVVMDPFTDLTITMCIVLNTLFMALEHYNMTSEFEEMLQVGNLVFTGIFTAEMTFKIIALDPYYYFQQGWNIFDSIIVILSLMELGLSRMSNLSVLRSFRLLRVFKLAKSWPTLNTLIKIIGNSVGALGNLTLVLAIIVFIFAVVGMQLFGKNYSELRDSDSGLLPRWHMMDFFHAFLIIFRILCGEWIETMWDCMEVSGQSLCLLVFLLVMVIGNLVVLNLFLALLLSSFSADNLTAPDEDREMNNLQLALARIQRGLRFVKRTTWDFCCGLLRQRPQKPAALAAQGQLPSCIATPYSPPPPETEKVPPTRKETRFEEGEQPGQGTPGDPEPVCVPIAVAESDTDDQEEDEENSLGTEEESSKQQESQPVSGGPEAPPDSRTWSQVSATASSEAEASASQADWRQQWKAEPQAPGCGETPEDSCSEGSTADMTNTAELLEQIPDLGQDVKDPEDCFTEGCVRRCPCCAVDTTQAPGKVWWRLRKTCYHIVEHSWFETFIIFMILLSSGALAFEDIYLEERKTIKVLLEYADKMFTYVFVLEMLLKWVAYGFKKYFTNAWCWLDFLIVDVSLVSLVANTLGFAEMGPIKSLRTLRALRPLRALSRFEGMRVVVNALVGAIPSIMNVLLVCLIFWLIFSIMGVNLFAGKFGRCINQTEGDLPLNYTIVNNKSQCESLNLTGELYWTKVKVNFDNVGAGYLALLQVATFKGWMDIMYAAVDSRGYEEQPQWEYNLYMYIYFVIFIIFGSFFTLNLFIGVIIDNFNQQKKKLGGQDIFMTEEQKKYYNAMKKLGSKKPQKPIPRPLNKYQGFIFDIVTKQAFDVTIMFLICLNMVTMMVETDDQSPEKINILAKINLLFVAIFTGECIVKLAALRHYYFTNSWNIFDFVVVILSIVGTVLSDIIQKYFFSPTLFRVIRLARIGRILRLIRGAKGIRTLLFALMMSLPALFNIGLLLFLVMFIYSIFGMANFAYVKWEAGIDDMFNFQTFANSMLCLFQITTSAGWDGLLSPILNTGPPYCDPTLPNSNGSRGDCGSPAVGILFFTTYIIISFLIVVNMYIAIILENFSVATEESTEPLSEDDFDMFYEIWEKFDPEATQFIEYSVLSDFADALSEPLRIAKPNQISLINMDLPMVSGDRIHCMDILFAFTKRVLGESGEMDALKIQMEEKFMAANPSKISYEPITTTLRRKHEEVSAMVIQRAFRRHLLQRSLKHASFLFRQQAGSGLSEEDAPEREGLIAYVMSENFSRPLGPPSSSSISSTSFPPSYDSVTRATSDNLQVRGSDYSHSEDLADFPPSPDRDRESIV
Method: However, all external solutions contained 30 nM ATX-II in order to activate late current. Late current was measured at its maximum during the repolarizing ramp.
Concentration-response relationships for each test article were independently investigated, i.e., each cell received only one test article, typically evaluating multiple concentrations in a cumulative fashion (lowest to highest concentrations). However, some platforms tested only one concentration per well. Each concentration response was based on a minimum of four concentrations, with a minimum of three wells used for each concentration. In cases of high variability, more cells per concentration were recorded. Prior to drug addition, cells received an addition of vehicle to measure non-test article-related effects such as addition artifacts. At the end of the experiment, a supramaximal concentration of a known inhibitory reference compound was applied to assess leak current and appropriate responsiveness of the test system.
(§1) The steady state current at each concentration was used to determine the concentration-response relationships. Mean concentration-response data were fitted to a standard sigmoidal four-parameter logistic equation (GraphPad Prism 7; GraphPad Inc., La Jolla, CA) of the form: Y=Bottom+(Top−Bottom)/(1+10^∧(LogIC50−X)∗HillSlope) where Y is the current inhibition (in % of pre-drug control), X is the logarithm of drug concentration, and IC50 is the drug concentration producing half-maximal current inhibition. Curve fitting was performed using the following constraints: Top = 100%, Bottom = 0%, Hill Slope <2. No curve fitting was performed in cases with an obvious lack of a concentration-dependent current inhibition and/or small effect size (approximately ≤20%).

hERG [1] = molecular target: T2, hERG (Homo sapiens, UniProt Q12809); experiment: Automated patch clamp, hERG current block, Milnes protocol (site s06); assay type: cell-based; parameters: expressed in transfected cells; host or cells: HEK293 or CHO, depending on site (site s06, Milnes protocol: HEK293); settings: s06_p4, HEK293, 22–24 °C
T2 sequence (Q12809 whole entry): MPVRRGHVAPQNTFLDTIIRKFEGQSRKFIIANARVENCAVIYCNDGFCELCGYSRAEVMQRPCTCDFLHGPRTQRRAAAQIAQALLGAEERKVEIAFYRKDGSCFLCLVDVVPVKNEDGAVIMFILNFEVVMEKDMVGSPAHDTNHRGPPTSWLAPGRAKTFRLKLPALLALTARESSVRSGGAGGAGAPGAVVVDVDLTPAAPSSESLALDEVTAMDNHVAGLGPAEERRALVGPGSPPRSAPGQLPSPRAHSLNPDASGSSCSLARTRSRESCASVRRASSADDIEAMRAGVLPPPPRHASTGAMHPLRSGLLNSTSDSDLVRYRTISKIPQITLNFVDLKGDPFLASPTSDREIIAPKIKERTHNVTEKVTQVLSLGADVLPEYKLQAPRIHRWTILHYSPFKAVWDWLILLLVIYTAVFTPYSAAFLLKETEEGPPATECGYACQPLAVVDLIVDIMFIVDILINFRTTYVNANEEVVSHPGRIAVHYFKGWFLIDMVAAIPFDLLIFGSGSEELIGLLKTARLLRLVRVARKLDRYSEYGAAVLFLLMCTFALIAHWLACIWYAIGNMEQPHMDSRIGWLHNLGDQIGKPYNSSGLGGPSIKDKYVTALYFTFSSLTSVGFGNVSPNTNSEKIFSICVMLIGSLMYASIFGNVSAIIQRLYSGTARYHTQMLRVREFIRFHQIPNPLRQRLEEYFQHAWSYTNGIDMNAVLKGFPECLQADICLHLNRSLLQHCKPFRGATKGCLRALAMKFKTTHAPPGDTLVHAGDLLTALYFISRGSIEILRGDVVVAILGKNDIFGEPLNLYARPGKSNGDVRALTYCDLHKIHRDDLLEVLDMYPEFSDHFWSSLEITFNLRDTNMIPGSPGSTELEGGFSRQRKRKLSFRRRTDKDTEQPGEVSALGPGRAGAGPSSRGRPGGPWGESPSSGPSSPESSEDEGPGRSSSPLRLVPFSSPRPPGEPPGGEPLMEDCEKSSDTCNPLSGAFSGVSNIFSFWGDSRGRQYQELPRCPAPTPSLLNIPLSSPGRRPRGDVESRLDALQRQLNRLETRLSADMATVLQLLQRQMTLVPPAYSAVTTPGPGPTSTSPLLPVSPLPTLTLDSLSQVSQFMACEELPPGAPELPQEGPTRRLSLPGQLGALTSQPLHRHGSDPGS
From the text: Thus, a single test site (s06) elicited hERG current with a 10-s depolarizing voltage step from −80 mV to 0 mV every 25 s (Milnes protocol, see Milnes et al.[14]).
as §1
This protocol consists of a set of two 25-s-long pulse protocols, with one protocol (“Pulse”) containing a prolonged 10-s-long depolarizing test pulse (0 mV) followed by a 14-s-long return pulse to −80 mV, and a second protocol “No-Pulse” consisting of the same pulse structure without the depolarizing test pulse[18].

hERG [2] = molecular target: T2, hERG; experiment: Automated patch clamp, hERG current block (consensus step-ramp protocol); settings: for hERG K+ current inhibition, Mean, at maximal concentration: max conc [mol/L]: bep 3.00E-07, cpz 3.00E-06, cis 3.00E-07, dil 1.00E-04, dof 1.00E-07, mex 1.00E-04, ond 1.00E-05, qui 1.00E-05, ran 1.00E-04, sot 3.00E-04, ter 3.00E-07, ver 1.00E-06; for hERG K+ current inhibition, Mean, at minimal concentration: min conc [mol/L]: bep 1.00E-08, cpz 1.00E-07, cis 1.00E-09, dil 3.00E-06, dof 1.00E-09, mex 1.00E-06, ond 3.00E-07, qui 1.00E-07, ran 3.00E-06, sot 1.00E-05, ter 1.00E-08, ver 3.00E-08
[3] = s03_p2, HEK293, room temperature
[4] = s16_p3, HEK293, room temperature

Cc1cccc(C)c1OCC(C)N (stereo not shown) [mex, mexiletine]
nH, Hill slope, late hNav1.5 inhibition (late hNav1.5; site_platform s06_p4): 0.97
Late hNav1.5 Na+ current inhibition, Mean (late hNav1.5; site_platform s06_p4, 1.00E-04 mol/L): 96.2%
Late hNav1.5 Na+ current inhibition, Mean (late hNav1.5; site_platform s06_p4, 1.00E-06 mol/L): 18.9%
nH, Hill slope, late hNav1.5 inhibition (late hNav1.5; site_platform s07_p6): 1.16
Late hNav1.5 Na+ current inhibition, Mean (late hNav1.5; site_platform s07_p6, 1.00E-04 mol/L): 89.6%
Late hNav1.5 Na+ current inhibition, Mean (late hNav1.5; site_platform s07_p6, 1.00E-06 mol/L): 5.5%
nH, Hill slope, late hNav1.5 inhibition (late hNav1.5; site_platform s13_p2): 0.53
Late hNav1.5 Na+ current inhibition, Mean (late hNav1.5; site_platform s13_p2, 1.00E-04 mol/L): 76.8%
Late hNav1.5 Na+ current inhibition, Mean (late hNav1.5; site_platform s13_p2, 1.00E-06 mol/L): 26.4%
nH, Hill slope, late hNav1.5 inhibition (late hNav1.5; site_platform s14_p1): 4.08
Late hNav1.5 Na+ current inhibition, Mean (late hNav1.5; site_platform s14_p1, 1.00E-04 mol/L): 98.8%
Late hNav1.5 Na+ current inhibition, Mean (late hNav1.5; site_platform s14_p1, 1.00E-06 mol/L): -15.4%
hERG K+ current nH, Hill slope (hERG [1]): 1.02
hERG K+ current inhibition, Mean, at maximal concentration (hERG [1]; max conc [mol/L]: bep 3.00E-07, cpz 3.00E-06, cis 3.00E-07, dil 1.00E-04, dof 1.00E-07, mex 1.00E-04, ond 1.00E-05, qui 1.00E-05, ran 1.00E-04, sot 3.00E-04, ter 3.00E-07, ver 1.00E-06): 71.6%
hERG K+ current inhibition, Mean, at minimal concentration (hERG [1]; min conc [mol/L]: bep 1.00E-08, cpz 1.00E-07, cis 1.00E-09, dil 3.00E-06, dof 1.00E-09, mex 1.00E-06, ond 3.00E-07, qui 1.00E-07, ran 3.00E-06, sot 1.00E-05, ter 1.00E-08, ver 3.00E-08): -3.4%
IC50 (hERG [1]; read-out: hERG K+ current log IC50 (converted)): 37.2 µM
IC50 (hERG [2]; hERG K+ current log IC50, s01_p1, CHO, 23 °C): 138 µM
IC50 (hERG [2]; hERG K+ current log IC50, s02_p2, HEK293, 22–26 °C): 110 µM
IC50 (hERG [2]; hERG K+ current log IC50, s03_p2, HEK293, room temperature): 20.4 µM
IC50 (hERG [2]; hERG K+ current log IC50, s04_p3, CHO, room temperature): 47.9 µM
IC50 (hERG [2]; hERG K+ current log IC50, s15_p1, HEK293, 22–23 °C): 24 µM
IC50 (hERG [2]; hERG K+ current log IC50, s16_p3, HEK293, room temperature): 85.1 µM
inhibition at 0.0001 mol/L (hERG [2]; human, hERG K+ current inhibition, Mean, site_platform s07_p5, 1.00E-04 mol/L): 65%
inhibition at 1e-06 mol/L (hERG [2]; human, hERG K+ current inhibition, Mean, site_platform s07_p5, 1.00E-06 mol/L): -10.5%
inhibition at 4 min, 0.0001 mol/L (hERG [2]; human, hERG K+ current inhibition, Mean, site_platform s10_p3, 1.00E-04 mol/L): 42%
inhibition at 4 min, 1e-06 mol/L (hERG [2]; human, hERG K+ current inhibition, Mean, site_platform s10_p3, 1.00E-06 mol/L): -3.5%
inhibition at 7 min, 0.0001 mol/L (hERG [2]; human, hERG K+ current inhibition, Mean, site_platform s11_p1, 1.00E-04 mol/L): 73.7%
inhibition at 0.0001 mol/L (hERG [2]; human, hERG K+ current inhibition, Mean, site_platform s12_p2, 1.00E-04 mol/L): 56.6%
inhibition at 1e-06 mol/L (hERG [2]; human, hERG K+ current inhibition, Mean, site_platform s12_p2, 1.00E-06 mol/L): 0.2%
inhibition at 0.0001 mol/L (hERG [2]; human, hERG K+ current inhibition, Mean, site_platform s13_p2, 1.00E-04 mol/L): 78.6%
inhibition at 1e-06 mol/L (hERG [2]; human, hERG K+ current inhibition, Mean, site_platform s13_p2, 1.00E-06 mol/L): 7.7%
inhibition at 7 min, 0.0001 mol/L (hERG [2]; human, hERG K+ current inhibition, Mean, site_platform s14_p1, 1.00E-04 mol/L): 60.2%
inhibition at 7 min, 1e-06 mol/L (hERG [2]; human, hERG K+ current inhibition, Mean, site_platform s14_p1, 1.00E-06 mol/L): 10.8%
inhibition at 7 min, 1e-06 mol/L (hERG [2]; human, recombinant cells expressing hERG, hERG K+ current inhibition, Mean, site_platform s11_p1, 1.00E-06 mol/L): 29.4%
IC50 (hERG [2]; log IC50, hERG K+ current inhibition, site_platform s07_p5): 72.4 µM
IC50 (hERG [2]; log IC50, hERG K+ current inhibition, site_platform s10_p3): 126 µM
IC50 (hERG [2]; log IC50, hERG K+ current inhibition, site_platform s11_p1): 15.8 µM
IC50 (hERG [2]; log IC50, hERG K+ current inhibition, site_platform s12_p2): 77.6 µM
IC50 (hERG [2]; log IC50, hERG K+ current inhibition, site_platform s13_p2): 34.7 µM
IC50 (hERG [2]; log IC50, hERG K+ current inhibition, site_platform s14_p1): 63.1 µM
hERG K+ current nH, Hill slope (hERG [2]; s01_p1, CHO, 23 °C): 0.78
hERG K+ current inhibition, Mean, at maximal concentration (hERG [2]; s01_p1, CHO, 23 °C): 46.1%
hERG K+ current inhibition, Mean, at minimal concentration (hERG [2]; s01_p1, CHO, 23 °C): 0.7%
hERG K+ current nH, Hill slope (hERG [2]; s02_p2, HEK293, 22–26 °C): 0.95
hERG K+ current inhibition, Mean, at maximal concentration (hERG [2]; s02_p2, HEK293, 22–26 °C): 48.2%
hERG K+ current inhibition, Mean, at minimal concentration (hERG [2]; s02_p2, HEK293, 22–26 °C): 1.0%
hERG K+ current nH, Hill slope (hERG [2]; [3]): 0.95
hERG K+ current inhibition, Mean, at maximal concentration (hERG [2]; [3]): 86.8%
hERG K+ current inhibition, Mean, at minimal concentration (hERG [2]; [3]): 14.6%
hERG K+ current nH, Hill slope (hERG [2]; s04_p3, CHO, room temperature): 0.81
hERG K+ current inhibition, Mean, at maximal concentration (hERG [2]; s04_p3, CHO, room temperature): 67.4%
hERG K+ current inhibition, Mean, at minimal concentration (hERG [2]; s04_p3, CHO, room temperature): 9.7%
hERG K+ current log IC50 (hERG [2]; s05_p4, HEK293, 22–24 °C): -4.37 log mol/L
hERG K+ current nH, Hill slope (hERG [2]; s05_p4, HEK293, 22–24 °C): 1.45
hERG K+ current inhibition, Mean, at maximal concentration (hERG [2]; s05_p4, HEK293, 22–24 °C): 75.7%
hERG K+ current nH, Hill slope (hERG [2]; s15_p1, HEK293, 22–23 °C): 0.72
hERG K+ current inhibition, Mean, at maximal concentration (hERG [2]; s15_p1, HEK293, 22–23 °C): 74.6%
hERG K+ current inhibition, Mean, at minimal concentration (hERG [2]; s15_p1, HEK293, 22–23 °C): 10.3%
hERG K+ current nH, Hill slope (hERG [2]; [4]): 0.76
hERG K+ current inhibition, Mean, at maximal concentration (hERG [2]; [4]): 52.6%
hERG K+ current inhibition, Mean, at minimal concentration (hERG [2]; [4]): 3.9%
hERG K+ current nH, Hill slope (hERG [2]; s18_p1, CHO, 35 °C): 1.12
hERG K+ current inhibition, Mean, at maximal concentration (hERG [2]; s18_p1, CHO, 35 °C): 70.4%
hERG K+ current inhibition, Mean, at minimal concentration (hERG [2]; s18_p1, CHO, 35 °C): -1.2%
hERG K+ current nH, Hill slope (hERG [2]; s19_p3, CHO, room temperature): 0.84
hERG K+ current inhibition, Mean, at maximal concentration (hERG [2]; s19_p3, CHO, room temperature): 58.4%
hERG K+ current inhibition, Mean, at minimal concentration (hERG [2]; s19_p3, CHO, room temperature): 4.2%
nH (Hill slope), hERG K+ current inhibition (hERG [2]; site_platform s07_p5): 1.95
nH (Hill slope), hERG K+ current inhibition (hERG [2]; site_platform s10_p3): 1.32
nH (Hill slope), hERG K+ current inhibition (hERG [2]; site_platform s11_p1): 0.41
nH (Hill slope), hERG K+ current inhibition (hERG [2]; site_platform s12_p2): 1.12
nH (Hill slope), hERG K+ current inhibition (hERG [2]; site_platform s13_p2): 1.01
nH (Hill slope), hERG K+ current inhibition (hERG [2]; site_platform s14_p1): 0.63
